Results: patent US20230140430A1, “1H-PYRAZOLO[4,3-d]PYRIMIDINE COMPOUNDS AS TOLL-LIKE RECEPTOR 7 (TLR7) AGONISTS” (BRISTOL-MYERS SQUIBB COMPANY, priority 2020, published 2023)
Read-outs that look alike come from different tables or passages of the source.

How the values were obtained:
human TLR7 = biological target: T1, human TLR7 (Homo sapiens, UniProt Q9NYK1); assay: Human TLR7 agonist activity assay (HEK-Blue TLR7 SEAP reporter); format: cell-based; settings: HEK-Blue TLR7 cells, 18 h treatment, average where assay was performed multiple times, read-out: hTLR7 Agonism EC50
T1 construct: host or cells: HEK-Blue TLR7 cells (engineered human embryonic kidney cells)
T1 sequence (Q9NYK1 27-1049): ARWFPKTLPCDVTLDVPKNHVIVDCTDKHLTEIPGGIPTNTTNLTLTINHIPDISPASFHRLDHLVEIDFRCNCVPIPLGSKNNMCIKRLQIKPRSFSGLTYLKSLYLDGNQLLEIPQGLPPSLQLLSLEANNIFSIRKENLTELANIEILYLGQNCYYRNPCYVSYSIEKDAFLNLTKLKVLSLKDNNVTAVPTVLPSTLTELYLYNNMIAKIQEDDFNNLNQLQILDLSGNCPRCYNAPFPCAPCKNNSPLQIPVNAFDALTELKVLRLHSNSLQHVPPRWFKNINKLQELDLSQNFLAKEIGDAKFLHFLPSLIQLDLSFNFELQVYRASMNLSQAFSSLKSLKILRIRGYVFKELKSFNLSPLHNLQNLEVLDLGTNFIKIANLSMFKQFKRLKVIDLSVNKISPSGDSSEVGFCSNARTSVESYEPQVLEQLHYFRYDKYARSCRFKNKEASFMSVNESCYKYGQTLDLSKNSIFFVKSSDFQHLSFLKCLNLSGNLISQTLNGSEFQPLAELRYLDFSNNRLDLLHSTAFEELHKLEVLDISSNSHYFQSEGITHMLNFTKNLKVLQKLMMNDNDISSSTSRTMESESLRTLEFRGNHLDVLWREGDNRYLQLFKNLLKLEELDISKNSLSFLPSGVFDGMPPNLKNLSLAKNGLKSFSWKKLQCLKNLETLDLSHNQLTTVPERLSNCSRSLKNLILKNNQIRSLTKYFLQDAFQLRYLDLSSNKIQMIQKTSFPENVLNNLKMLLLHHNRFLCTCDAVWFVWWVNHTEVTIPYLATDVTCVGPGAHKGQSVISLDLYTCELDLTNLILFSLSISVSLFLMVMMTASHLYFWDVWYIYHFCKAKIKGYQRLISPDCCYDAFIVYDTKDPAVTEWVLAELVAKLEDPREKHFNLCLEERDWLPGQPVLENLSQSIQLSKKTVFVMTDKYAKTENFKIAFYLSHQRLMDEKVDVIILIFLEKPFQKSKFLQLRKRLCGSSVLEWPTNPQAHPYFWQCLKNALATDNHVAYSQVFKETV
Experimental: This procedure describes a method for assaying human TLR7 (hTLR7) agonist activity of the compounds disclosed in this specification.
HEK-Blue™ TLR7 cells were added to each well of a 384-well tissue-culture plate (15,000 cells per well) and incubated 16-18 h at 37° C., 5% CO2. Compounds (100 nl) were dispensed into wells containing the HEK-Blue™ TLR cells and the treated cells were incubated at 37° C., 5% CO2. After 18 h treatment ten microliters of freshly-prepared Quanti-Blue™ reagent (Invivogen) was added to each well, incubated for 30 min (37° C., 5% CO2) and SEAP levels measured using an Envision plate reader (OD=620 nm).

CD69 = assay: Induction of CD69 in human whole blood; format: cell-based
Experimental: The induction of Type I interferon (IFN) MX-1 genes and the B-cell activation marker CD69 are downstream events that occur upon activation of the TLR7 pathway. The following is a human whole blood assay that measures their induction in response to a TLR7 agonist.
Heparinized human whole blood was harvested from human subjects and treated with test TLR7 agonist compounds at 1 mM. The blood was diluted with RPMI 1640 media and Echo was used to predot 10 nL per well giving a final concentration of 1 uM (10 nL in 10 uL of blood). After mixing on a shaker for 30 sec, the plates were covered and placed in a 37° C. chamber for o/n=17 hrs. Fixing/lysis buffer was prepared (5×->1× in H2O, warm at 37° C.; Cat #BD 558049) and kept the perm buffer (on ice) for later use.
For surface markers staining (CD69): prepared surface Abs: 0.045 ul hCD14-FITC (ThermoFisher Cat #MHCD1401)+0.6 ul hCD19-ef450 (ThermoFisher Cat #48-0198-42)+1.5 ul hCD69-PE (cat #BD555531)+0.855 ul FACS buffer. Added 3 ul/well, spin1000 rpm for 1 min and mixed on shaker for 30 sec, put on ice for 30 mins. Stop stimulation after 30 min with 70 uL of prewarmed 1× fix/lysis buffer and use Feliex mate to resuspend (15 times, change tips for each plate) and incubate at 37 C for 10 min.
Centrifuge at 2000 rpm for 5 min aspirate with HCS plate washer, mix on shaker for 30 sec and then wash with 70 uL in dPBS and pelleted 2×s (2000 rpm for 5 min) and 50 ul wash in FACS buffer pelleted 1×s (2000 rpm for 5 min). Mix on shaker for 30 sec. For Intracellular markers staining (MX-1): Add 50 ul of BD Perm buffer III and mix on shaker for 30 sec. Incubate on ice for 30 minutes (in the dark). Wash with 50 uL of FACS buffer 2× (spin @2300 rpm×5 min after perm) followed by mixing on shaker for 30 sec. Resuspended in 20 ul of FACS buffer containing MX1 antibody ( )(4812)-Alexa 647: Novus Biologicals #NBP2-43704AF647) 20 ul FACS bf+0.8 ul hlgG+0.04 ul MX-1. Spin 1000 rpm for 1 min, mix on shaker for 30se and the samples were incubated at RT in the dark for 45 minutes followed by washing 2×FACS buffer (spin @2300 rpm×5 min after perm). Resuspend 20 ul (35 uL total per well) of FACS buffer and cover with foil and place in 4° C. to read the following day. Plates were read on iQuePlus. The results were loaded into toolset and […] curves are generated in curve master. The y-axis 100% is set to 1 uM of resiquimod.

[1] = Homo sapiens, 17 h, read-out: hWB CD69 EC50 (nM)
[2] = human whole blood, 17 hrs, CD69 surface staining, 100% set to 1 uM of resiquimod, average where assay was performed multiple times, read-out: hWB CD69 EC50

EC50 (human TLR7)	EC50 (CD69; [2])	SMILES	EC50 (CD69; [1])
1.3 µM	≥ 1000 nM	CCC[C@@H](CCO)Nc1nc(N)nc2cnn(Cc3ccc(C(=O)NCC4CCNCC4)cc3OC)c12 [Compound 101, 4-[(5-amino-7-{[(3S)-1-hydroxyhexan-3-yl]amino}-1H-pyrazolo[4,3-d]pyrimidin-1-yl)methyl]-3-methoxy-N-[(piperidin-4-yl)methyl]benzamide]	
1.19 µM	340 nM	CCCCNc1nc(N)nc2cnn(Cc3ccc(C(=O)N4CCN(CCO)CC4)cc3OC3CC3)c12 [Compound 122, 2-[4-(4-{[5-amino-7-(butylamino)-1H-pyrazolo[4,3-d]pyrimidin-1-yl]methyl}-3-cyclopropoxybenzoyl)piperazin-1-yl]ethan-1-ol]	
0.405 µM	63.3 nM	CCCCNc1nc(N)nc2c(C)nn(Cc3ccc(C(=O)N4CCN(CCO)CC4)cc3OC)c12 [Compound 118, 2-[4-(4-{[5-amino-7-(butylamino)-3-methyl-1H-pyrazolo[4,3-d]pyrimidin-1-yl]methyl}-3-methoxybenzoyl)piperazin-1-yl]ethan-1-ol]	
0.0407 µM	120 nM	CCCCNc1nc(N)nc2cnn(Cc3ccc(C(=O)N4CCNCC4)cc3OC)c12 [Compound 104, N7-butyl-1-{[2-methoxy-4-(piperazine-1-carbonyl)phenyl]methyl}-1H-pyrazolo[4,3-d]pyrimidine-5,7-diamine]	
0.505 µM	173 nM	COc1cc(C(=O)N2CCN(CCO)CC2)ccc1Cn1ncc2nc(N)nc(NCc3cc(C)on3)c21 [Compound 127, 2-(4-{4-[(5-amino-7-{[(5-methyl-1,2-oxazo1-3-yl)methyl]amino}-1H-pyrazolo[4,3-d]pyrimidin-1-yl)methyl]-3-methoxybenzoyl}piperazin-1-yl)ethan-1-ol]	
1.2 µM	94.6 nM	CCCCNc1nc(N)nc2cnn(Cc3ccc(C(=O)N4CCN(CCO)CC4)cc3OC(F)F)c12 [Compound 120, 2-[4-(4-{[5-amino-7-(butylamino)-1H-pyrazolo[4,3-d]pyrimidin-1-yl]methyl}-3-(difluoromethoxy)benzoyl)piperazin-1-yl]ethan-1-ol]	
0.111 µM	106 nM	CCCCNc1nc(N)nc2cnn(Cc3ccc(C(=O)N4CCC(O)CC4)cc3OC)c12 [Compound 113, 1-(4-{[5-amino-7-(butylamino)-1H-pyrazolo[4,3-d]pyrimidin-1-yl]methyl}-3-methoxybenzoyl)piperidin-4-ol]	
0.264 µM	93.4 nM	CCCCNc1nc(N)nc2cnn(Cc3ccc(C(=O)N4CCN(C(C)=O)CC4)cc3OC)c12 [Compound 107, 1-[4-(4-{[5-amino-7-(butylamino)-1H-pyrazolo[4,3-d]pyrimidin-1-yl]methyl}-3-methoxybenzoyl)piperazin-1-yl]ethan-1-one]	
0.968 µM	332 nM	CCCCNc1nc(N)nc2c(C)nn(Cc3ccc(C(=O)N4CCNC(=O)C4)cc3OC)c12 [Compound 119, 4-(4-{[5-amino-7-(butylamino)-3-methyl-1H-pyrazolo[4,3-d]pyrimidin-1-yl]methyl}-3-methoxybenzoyl)piperazin-2-one]	
0.602 µM	≥ 1000 nM	CCCCNc1nc(N)nc2cnn(Cc3ccc(C(=O)N4CCN(CC(F)(F)F)CC4)cc3OC)c12 [Compound 108, N7-butyl-1-({2-methoxy-4-[4-(2,2,2-trifluoroethyl)piperazine-1-carbonyl]phenyl}methyl)-1H-pyrazolo[4,3-d]pyrimidine-5,7-diamine]	
1.87 µM	552 nM	COc1cc(C(=O)N2CCN(CCO)CC2)ccc1Cn1ncc2nc(N)nc(NCc3noc(C)n3)c21 [Compound 133, 2-(4-{4-[(5-amino-7-{[(5-methyl-1,2,4-oxadiazo1-3-yl)methyl]amino}-1H-pyrazolo[4,3-d]pyrimidin-1-yl)methyl]-3-methoxybenzoyl}piperazin-1-yl)ethan-1-ol]	
0.154 µM	81.9 nM	CCCCNc1nc(N)nc2cnn(Cc3ccc(C(=O)N4CCC(CO)CC4)cc3OC)c12 [Compound 112, [1-(4-{[5-amino-7-(butylamino)-1H-pyrazolo[4,3-d]pyrimidin-1-yl]methyl}-3-methoxybenzoyl)piperidin-4-yl]methanol]	
0.384 µM	224 nM	CCCCNc1nc(N)nc2cnn(Cc3ccc(C(=O)N4CCNC(=O)C4)cc3OC)c12 [Compound 115, 4-(4-{[5-amino-7-(butylamino)-1H-pyrazolo[4,3-d]pyrimidin-1-yl]methyl}-3-methoxybenzoyl)piperazin-2-one]	
	≥ 1000 nM	CCCCNc1nc(N)nc2cnn(Cc3ccc(C(=O)NC4CCOCC4)cc3OC)c12 [Compound 102, 4-{[5-amino-7-(butylamino)-1H-pyrazolo[4,3-d]pyrimidin-1-yl]methyl}-3-methoxy-N-(oxan-4-yl)benzamide]	

SMILES	EC50 (human TLR7)	EC50 (CD69; [2])	EC50 (CD69; [1])
CCCCNc1nc(N)nc2c(C)nn(Cc3ccc(C(=O)NC4CCN(C)CC4)cc3OC)c12 [Compound 117, 4-{[5-amino-7-(butylamino)-3-methyl-1H-pyrazolo[4,3-d]pyrimidin-1-yl]methyl}-3-methoxy-N-(1-methylpiperidin-4-yl)benzamide]	0.467 µM		56.9 nM
CCC1CC(CNc2nc(N)nc3cnn(Cc4ccc(C(=O)NC5CCN(C)CC5)cc4OC)c23)C1 (stereo not shown) [Compound 124, 4-[(5-amino-7-{[(3-ethylcyclobutyl)methyl]amino}-1H-pyrazolo[4,3-d]pyrimidin-1-yl)methyl]-3-methoxy-N-(1-methylpiperidin-4-yl)benzamide]	0.508 µM		95.4 nM
COc1cc(C(=O)NC2CCN(C)CC2)ccc1Cn1ncc2nc(N)nc(NCc3cc(C)on3)c21 [Compound 129, 4-[(5-amino-7-{[(5-methyl-1,2-oxazo1-3-yl)methyl]amino}-1H-pyrazolo[4,3-d]pyrimidin-1-yl)methyl]-3-methoxy-N-(1-methylpiperidin-4-yl)benzamide]	1.24 µM		67.7 nM
CCC[C@@H](CCO)Nc1nc(N)nc2c(F)nn(Cc3ccc(C(=O)NC4CCN(C)CC4)cc3OC)c12 [Compound 128, 4-[(5-amino-3-fluoro-7-{[(3S)-1-hydroxyhexan-3-yl]amino}-1H-pyrazolo[4,3-d]pyrimidin-1-yl)methyl]-3-methoxy-N-(1-methylpiperidin-4-yl)benzamide]	0.179 µM		772 nM
CCC[C@@H](CO)Nc1nc(N)nc2cnn(Cc3ccc(C(=O)NC4CCN(C)CC4)cc3OC)c12 [Compound 126, 4-[(5-amino-7-{[(2S)-1-hydroxypentan-2-yl]amino}-1H-pyrazolo[4,3-d]pyrimidin-1-yl)methyl]-3-methoxy-N-(1-methylpiperidin-4-yl)benzamide]	5 µM		326 nM
